ChEMBL document CHEMBL1201862, “PubChem BioAssay data set” (2004)
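Cultured in 96-well plates, cells were exposed to test compound for 48 hours across five concentrations. At the GI50, growth is halved.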 Active and inactive are the calls of the source. Cut-off read from the data, not from the text of the source: active = GI50 up to about 1.1 µM and inactive = higher.

Tests used:
Assay in all cases: inhibition of tumour cell growth, NCI panel, 48 h
A498 = system: A498
A549 = system: A549
ACHN = system: ACHN
CAKI-1 = system: CAKI-1
COLO 205 = system: COLO 205
DU-145 = system: DU-145
EKVX = system: EKVX
HCT-15 = system: HCT-15
HOP-92 = system: HOP-92
HT-29 = system: HT-29
IGROV-1 = system: IGROV-1
KM12 = system: KM12
M14 = system: M14
MDA-MB-231 = system: MDA-MB-231
MDA-MB-435 = system: MDA-MB-435
MDA-N = system: MDA-N
NCI-H23 = system: NCI-H23
NCI/ADR-RES = system: NCI/ADR-RES
OVCAR-3 = system: OVCAR-3
OVCAR-4 = system: OVCAR-4
OVCAR-5 = system: OVCAR-5
OVCAR-8 = system: OVCAR-8
PC-3 = system: PC-3
RXF 393 = system: RXF 393
SF-268 = system: SF-268
SF-295 = system: SF-295
SK-MEL-28 = system: SK-MEL-28
SK-MEL-5 = system: SK-MEL-5
SN12C = system: SN12C
SNB-19 = system: SNB-19
SNB-75 = system: SNB-75
SW-620 = system: SW-620
TK-10 = system: TK-10
U-251 = system: U-251
UO-31 = system: UO-31
786-0 = system: 786-0
CCRF-CEM = system: CCRF-CEM
HCC 2998 = system: HCC 2998
HCT-116 = system: HCT-116
HL-60 = system: HL-60
HOP-62 = system: HOP-62
K562 = system: K562
LOX IMVI = system: LOX IMVI
MCF7 = system: MCF7
MOLT-4 = system: MOLT-4
Malme-3M = system: Malme-3M
NCI-H226 = system: NCI-H226
NCI-H460 = system: NCI-H460
NCI-H522 = system: NCI-H522
RPMI-8226 = system: RPMI-8226
SF-539 = system: SF-539
SK-MEL-2 = system: SK-MEL-2
SK-OV-3 = system: SK-OV-3
SR = system: SR
T47D = system: T47D
UACC-257 = system: UACC-257
UACC-62 = system: UACC-62
Hs-578T = system: Hs-578T

**Q.** For `C[N+]12CCN(c3ccccc31)c1ccccc12.[O-][Cl+3]([O-])([O-])[O-]`, which GI50 (A498) is on record?
**A.** > 10 µM (inactive)

**Q.** And the GI50 (A549)?
**A.** 4.91 µM (inactive)

**Q.** What about the GI50 (ACHN) of the same molecule?
**A.** > 10 µM (inactive)

**Q.** What about the GI50 (CAKI-1) of the same molecule?
**A.** > 10 µM (inactive)

**Q.** And the GI50 (COLO 205)?
**A.** 7.73 µM (inactive)

**Q.** What about the GI50 (DU-145) of the same molecule?
**A.** > 10 µM (inactive)

**Q.** And the GI50 (EKVX)?
**A.** 6.15 µM (inactive)

**Q.** And the GI50 (HCT-15)?
**A.** > 10 µM

**Q.** What about the GI50 (HOP-92) of the same molecule?
**A.** > 10 µM (inactive)

**Q.** And the GI50 (HT-29)?
**A.** > 10 µM (inactive)

**Q.** What about the GI50 (IGROV-1) of the same molecule?
**A.** > 10 µM (inactive)

**Q.** And the GI50 (KM12)?
**A.** > 10 µM (inactive)

**Q.** What about the GI50 (M14) of the same molecule?
**A.** > 10 µM (inactive)

**Q.** What about the GI50 (MDA-MB-231) of the same molecule?
**A.** > 10 µM (inactive)

**Q.** What about the GI50 (MDA-MB-435) of the same molecule?
**A.** > 10 µM (inactive)

**Q.** What about the GI50 (MDA-N) of the same molecule?
**A.** 2.79 µM (inactive)

**Q.** What about the GI50 (NCI-H23) of the same molecule?
**A.** 4.95 µM (inactive)

**Q.** And the GI50 (NCI/ADR-RES)?
**A.** > 10 µM (inactive)

**Q.** And the GI50 (OVCAR-3)?
**A.** 3.44 µM (inactive)

**Q.** What about the GI50 (OVCAR-4) of the same molecule?
**A.** > 10 µM (inactive)

**Q.** And the GI50 (OVCAR-5)?
**A.** > 10 µM (inactive)

**Q.** And the GI50 (OVCAR-8)?
**A.** 7.16 µM (inactive)

**Q.** And the GI50 (PC-3)?
**A.** > 10 µM (inactive)

**Q.** And the GI50 (RXF 393)?
**A.** > 10 µM (inactive)

**Q.** And the GI50 (SF-268)?
**A.** 4.79 µM (inactive)

**Q.** What about the GI50 (SF-295) of the same molecule?
**A.** 7.46 µM (inactive)

**Q.** And the GI50 (SK-MEL-28)?
**A.** > 10 µM (inactive)

**Q.** What about the GI50 (SK-MEL-5) of the same molecule?
**A.** 2.29 µM (inactive)

**Q.** And the GI50 (SN12C)?
**A.** 7.28 µM (inactive)

**Q.** And the GI50 (SNB-19)?
**A.** > 10 µM (inactive)

**Q.** What about the GI50 (SNB-75) of the same molecule?
**A.** 6.28 µM (inactive)

**Q.** And the GI50 (SW-620)?
**A.** > 10 µM (inactive)

**Q.** What about the GI50 (TK-10) of the same molecule?
**A.** > 10 µM (inactive)

**Q.** What about the GI50 (U-251) of the same molecule?
**A.** 6.01 µM (inactive)

**Q.** What about the GI50 (UO-31) of the same molecule?
**A.** > 10 µM (inactive)

**Q.** What does the source list for `CS/C(N)=N/c1cccc2ccccc12`?
**A.** GI50 (786-0): > 10 µM (inactive); GI50 (A498): > 10 µM (inactive); GI50 (A549): > 10 µM (inactive); GI50 (ACHN): > 10 µM (inactive); GI50 (CAKI-1): > 10 µM (inactive); GI50 (CCRF-CEM): > 10 µM (inactive); GI50 (COLO 205): > 10 µM (inactive); GI50 (DU-145): > 10 µM (inactive); GI50 (EKVX): > 10 µM (inactive); GI50 (HCC 2998): > 10 µM (inactive); GI50 (HCT-116): > 10 µM (inactive); GI50 (HCT-15): > 10 µM; GI50 (HL-60): > 10 µM (inactive); GI50 (HOP-62): > 10 µM (inactive); GI50 (HOP-92): > 10 µM (inactive); GI50 (HT-29): > 10 µM (inactive); GI50 (IGROV-1): > 10 µM (inactive); GI50 (K562): > 10 µM (inactive); GI50 (KM12): > 10 µM (inactive); GI50 (LOX IMVI): > 10 µM (inactive); GI50 (M14): > 10 µM (inactive); GI50 (MCF7): > 10 µM (inactive); GI50 (MDA-MB-231): > 10 µM (inactive); GI50 (MDA-MB-435): > 10 µM (inactive); GI50 (MDA-N): > 10 µM (inactive); GI50 (MOLT-4): > 10 µM (inactive); GI50 (Malme-3M): > 10 µM (inactive); GI50 (NCI-H226): > 10 µM (inactive); GI50 (NCI-H23): > 10 µM (inactive); GI50 (NCI-H460): > 10 µM (inactive); GI50 (NCI-H522): > 10 µM (inactive); GI50 (NCI/ADR-RES): > 10 µM (inactive); GI50 (OVCAR-3): > 10 µM (inactive); GI50 (OVCAR-4): > 10 µM (inactive); GI50 (OVCAR-8): > 10 µM (inactive); GI50 (PC-3): > 10 µM (inactive); GI50 (RPMI-8226): > 10 µM (inactive); GI50 (RXF 393): > 10 µM (inactive); GI50 (SF-268): > 10 µM (inactive); GI50 (SF-295): > 10 µM (inactive); GI50 (SF-539): > 10 µM (inactive); GI50 (SK-MEL-28): > 10 µM (inactive); GI50 (SK-MEL-2): > 10 µM (inactive); GI50 (SK-MEL-5): > 10 µM (inactive); GI50 (SK-OV-3): > 10 µM (inactive); GI50 (SN12C): > 10 µM (inactive); GI50 (SNB-19): > 10 µM (inactive); GI50 (SNB-75): > 10 µM (inactive); GI50 (SR): > 10 µM (inactive); GI50 (SW-620): > 10 µM (inactive); GI50 (T47D): > 10 µM (inactive); GI50 (TK-10): > 10 µM (inactive); GI50 (U-251): > 10 µM (inactive); GI50 (UACC-257): > 10 µM (inactive); GI50 (UACC-62): > 10 µM (inactive); GI50 (UO-31): > 10 µM (inactive)

**Q.** With `CCn1ncc(N=O)c1N` as the molecule, how does the GI50 (A549) read?
**A.** > 100 µM (inactive)

**Q.** And the GI50 (CCRF-CEM)?
**A.** > 100 µM (inactive)

**Q.** And the GI50 (COLO 205)?
**A.** > 100 µM (inactive)

**Q.** And the GI50 (HCT-116)?
**A.** > 100 µM (inactive)

**Q.** What about the GI50 (Hs-578T) of the same molecule?
**A.** > 100 µM (inactive)

**Q.** And the GI50 (IGROV-1)?
**A.** > 100 µM (inactive)

**Q.** And the GI50 (K562)?
**A.** > 100 µM (inactive)

**Q.** What about the GI50 (KM12) of the same molecule?
**A.** > 100 µM (inactive)

**Q.** And the GI50 (M14)?
**A.** > 100 µM (inactive)

**Q.** And the GI50 (MDA-N)?
**A.** > 100 µM (inactive)

**Q.** And the GI50 (NCI-H23)?
**A.** > 100 µM (inactive)

**Q.** And the GI50 (NCI-H522)?
**A.** > 100 µM (inactive)

**Q.** And the GI50 (RPMI-8226)?
**A.** > 100 µM (inactive)

**Q.** And the GI50 (SF-268)?
**A.** > 100 µM (inactive)

**Q.** What about the GI50 (SF-539) of the same molecule?
**A.** > 100 µM (inactive)

**Q.** And the GI50 (SNB-19)?
**A.** > 100 µM (inactive)
